Results from BindingDB's records for patent US20250145642 (Kineta, 2025).

Molecular target: T1, 1-phosphatidylinositol 3-phosphate 5-kinase [S696N,L932S,Q995L,T998S,S1033A,Q1183K] (Homo sapiens, UniProt Q9Y2I7, L932S/Q1183K/Q995L/S1033A/S696N/T998S)
T1 construct: gene PIKFYVE
Assay: PIKfyve Biochemical Assay
Method: The biochemical PIKfyve inhibition assays were run by Carna Biosciences according to proprietary methodology based on the Promega ADP-Glo™ Kinase assay. […] GST-PIKFYVE was purified by using glutathione sepharose chromatography and used in an ADP-Glo™ Kinase assay (Promega). Reactions were set up by adding the test compound solution, substrate solution, ATP solution and kinase solution, each at 4× final concentrations. Reactions were prepared with assay buffer (50 mM MOPS, 1 mM DTT, pH7.2), mixed, and incubated in black 384 well polystyrene plates for 1 hour at room temperature. ADP-Glo™ reagent was then added for 40 minutes, followed by kinase detection reagent for an additional 40 minutes. The kinase activity was evaluated by detecting relative light units on a luminescence plate reader. Samples were run in duplicate from 10 μM to 3 nM. […] IC50 values were calculated from concentration vs % inhibition curves by fitting to a four-parameter logistic curve.

T1 sequence (Q9Y2I7 2-2098 S696N/L932S/Q995L/T998S/S1033A/Q1183K limits assumed): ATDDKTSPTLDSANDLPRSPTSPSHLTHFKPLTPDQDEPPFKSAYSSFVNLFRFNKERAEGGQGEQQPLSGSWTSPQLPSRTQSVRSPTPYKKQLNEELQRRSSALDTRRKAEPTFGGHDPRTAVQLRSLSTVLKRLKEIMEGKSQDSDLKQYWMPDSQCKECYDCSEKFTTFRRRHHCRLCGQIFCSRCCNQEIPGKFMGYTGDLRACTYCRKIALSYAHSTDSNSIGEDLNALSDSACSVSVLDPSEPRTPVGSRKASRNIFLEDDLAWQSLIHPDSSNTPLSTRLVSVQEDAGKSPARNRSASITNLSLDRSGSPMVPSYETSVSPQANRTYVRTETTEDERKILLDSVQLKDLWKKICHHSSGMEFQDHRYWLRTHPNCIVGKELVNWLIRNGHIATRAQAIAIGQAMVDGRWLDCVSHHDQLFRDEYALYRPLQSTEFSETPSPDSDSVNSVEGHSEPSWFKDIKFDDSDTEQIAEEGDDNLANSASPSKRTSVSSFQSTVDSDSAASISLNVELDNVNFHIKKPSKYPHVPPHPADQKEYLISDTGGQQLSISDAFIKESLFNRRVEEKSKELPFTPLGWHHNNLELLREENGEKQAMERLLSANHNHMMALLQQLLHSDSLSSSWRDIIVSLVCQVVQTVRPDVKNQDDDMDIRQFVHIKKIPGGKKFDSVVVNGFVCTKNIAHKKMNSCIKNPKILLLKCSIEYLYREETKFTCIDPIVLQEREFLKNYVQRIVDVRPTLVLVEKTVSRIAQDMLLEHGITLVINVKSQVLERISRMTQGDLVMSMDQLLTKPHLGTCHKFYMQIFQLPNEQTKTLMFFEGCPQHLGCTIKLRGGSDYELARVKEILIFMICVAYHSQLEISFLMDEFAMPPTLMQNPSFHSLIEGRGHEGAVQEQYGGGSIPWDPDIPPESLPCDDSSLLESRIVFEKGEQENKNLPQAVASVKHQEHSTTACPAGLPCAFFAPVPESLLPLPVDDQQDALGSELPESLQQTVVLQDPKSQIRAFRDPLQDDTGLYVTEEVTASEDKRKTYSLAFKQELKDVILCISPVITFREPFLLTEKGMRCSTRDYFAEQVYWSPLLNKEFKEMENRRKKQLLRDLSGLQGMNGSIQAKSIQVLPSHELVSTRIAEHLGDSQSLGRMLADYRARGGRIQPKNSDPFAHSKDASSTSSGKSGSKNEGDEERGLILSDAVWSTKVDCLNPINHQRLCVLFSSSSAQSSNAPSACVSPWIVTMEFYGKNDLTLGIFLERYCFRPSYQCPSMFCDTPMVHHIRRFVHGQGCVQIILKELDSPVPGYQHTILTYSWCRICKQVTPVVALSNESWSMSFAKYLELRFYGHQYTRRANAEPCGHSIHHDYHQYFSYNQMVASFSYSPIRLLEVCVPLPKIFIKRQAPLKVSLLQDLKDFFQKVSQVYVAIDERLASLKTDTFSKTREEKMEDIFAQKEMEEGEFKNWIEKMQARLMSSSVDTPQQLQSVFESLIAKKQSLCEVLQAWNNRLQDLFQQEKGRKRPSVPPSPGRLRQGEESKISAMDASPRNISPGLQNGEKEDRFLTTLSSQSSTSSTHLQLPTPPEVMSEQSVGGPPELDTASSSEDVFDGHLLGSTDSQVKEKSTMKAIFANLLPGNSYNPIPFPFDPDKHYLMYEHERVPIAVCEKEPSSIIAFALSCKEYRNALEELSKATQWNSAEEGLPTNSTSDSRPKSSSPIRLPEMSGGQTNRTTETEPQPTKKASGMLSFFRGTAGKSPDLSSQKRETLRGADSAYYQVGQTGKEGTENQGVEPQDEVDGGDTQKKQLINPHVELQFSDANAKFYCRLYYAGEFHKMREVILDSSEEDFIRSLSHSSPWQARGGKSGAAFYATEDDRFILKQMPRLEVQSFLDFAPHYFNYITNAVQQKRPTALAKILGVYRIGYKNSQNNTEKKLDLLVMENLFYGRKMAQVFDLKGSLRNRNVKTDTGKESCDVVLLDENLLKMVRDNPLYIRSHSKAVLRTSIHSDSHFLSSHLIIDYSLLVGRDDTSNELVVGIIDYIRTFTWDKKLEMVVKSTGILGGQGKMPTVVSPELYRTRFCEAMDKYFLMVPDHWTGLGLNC

c1ccc(-c2c[nH]c3c(-c4ccncc4)nc(N4CCOCC4)nc23)cc1 [US20250145642, Compound 135]
IC50: < 10 nM
